In this test the test system is BDF1 mice, s.c. Lewis lung carcinoma, T/C %. As to the kind of experiment: NCI In Vivo Anticancer Drug Screen. Data for tumor model Lewis Lung Carcinoma (subcutaneous) in B6D2F1 (BDF1) mice. In short, it runs like this: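 Readout: survival or tumor size, expressed as treated (T) over vehicle control (C). Transplantable tumor implanted in mice; compound given to the treated group.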

Setting [1] is: endpoint: mean tumor weight, dose: 5.0 mg/kg/injection, schedule: Q01DX011 (ip), vehicle: saline, higher = larger tumour.
Where [2] appears, read: endpoint: mean tumor weight, dose: 50.0 mg/kg/injection, schedule: Q01DX011 (ip), vehicle: carboxymethylcellulose (CMC), higher = larger tumour.
[3] abbreviates: endpoint: mean tumor weight, dose: 100.0 mg/kg/injection, schedule: Q01DX011 (ip), vehicle: carboxymethylcellulose (CMC), higher = larger tumour.

“And” between values parts separate entries of the source, which are not always exact repeats. Equal values may be shown once. Records with an inconclusive call do not appear.

On to `NCC(O)c1ccc(O)c(O)c1` (configuration not stated), for which the T/C reads like this: (endpoint: mean tumor weight, dose: 2.5 mg/kg/injection, schedule: Q01DX011 (ip), vehicle: saline, higher = larger tumour) 105 % of control; under setting [1], 161 % of control; (endpoint: mean tumor weight, dose: 10.0 mg/kg/injection, schedule: Q01DX011 (ip), vehicle: saline, higher = larger tumour) 63 % of control.
Turning to `O=C(CP(=O)(O)O)NC(CC(=O)OCc1ccccc1)C(=O)OCc1ccccc1` (configuration not stated), the T/C (endpoint: median survival time, dose: 50.0 mg/kg/injection, schedule: Q01DX004 (ip), vehicle: saline, higher = longer survival) is 114 % of control and 120 % of control; the T/C (endpoint: median survival time, dose: 100.0 mg/kg/injection, schedule: Q01DX004 (ip), vehicle: saline, higher = longer survival) was 120 % of control and 118 % of control; the T/C (endpoint: median survival time, dose: 200.0 mg/kg/injection, schedule: Q01DX004 (ip), vehicle: saline, higher = longer survival) is 109 % of control; the T/C (endpoint: median survival time, dose: 400.0 mg/kg/injection, schedule: Q01DX004 (ip), vehicle: saline, higher = longer survival) was 109 % of control; the T/C (endpoint: median survival time, dose: 800.0 mg/kg/injection, schedule: Q01DX004 (ip), vehicle: saline, higher = longer survival) was 116 % of control.
With `Nc1nc(SN=Nc2ccc(S(=O)(=O)O)cc2)c2[nH]cnc2n1`, the T/C runs as follows: (endpoint: mean tumor weight, dose: 1.0 mg/kg/injection, schedule: Q01DX011 (ip), vehicle: saline, higher = larger tumour) 78 % of control; under setting [1], 65 % of control; (endpoint: mean tumor weight, dose: 9.0 mg/kg/injection, schedule: Q01DX011 (ip), vehicle: saline, higher = larger tumour) 40 % of control; (endpoint: mean tumor weight, dose: 15.0 mg/kg/injection, schedule: Q01DX011 (ip), vehicle: saline, higher = larger tumour) 40 % of control.
On to `C[C@H]1C[C@H]2[C@@H]3CC[C@](O)(C(=O)CO)[C@@]3(C)C[C@H](O)[C@]2(F)[C@@]2(C)C=CC(=O)C=C12`, for which the T/C is, setting by setting: (endpoint: mean tumor weight, dose: 15.0 mg/kg/injection, schedule: Q01DX011 (sc), vehicle: steriod suspending solution, higher = larger tumour) 44 % of control; (endpoint: mean tumor weight, dose: 30.0 mg/kg/injection, schedule: Q01DX011 (sc), vehicle: steriod suspending solution, higher = larger tumour) 43 % of control; (endpoint: mean tumor weight, dose: 90.0 mg/kg/injection, schedule: Q01DX011 (sc), vehicle: steriod suspending solution, higher = larger tumour) 12 % of control.
Take `Clc1[nH]nc2ccccc12`: the T/C (endpoint: mean tumor weight, dose: 125.0 mg/kg/injection, schedule: Q01DX011 (ip), vehicle: saline, higher = larger tumour) is 80 % of control and 85 % of control; the T/C (endpoint: mean tumor weight, dose: 250.0 mg/kg/injection, schedule: Q01DX011 (ip), vehicle: saline, higher = larger tumour) is 45 % of control and 67 % of control.
Consider `COc1cc2ccc3c4cc5c(cc4c[n+](C)c3c2cc1OC)OCO5`, for which the T/C (endpoint: median survival time, dose: 1.25 mg/kg/injection, schedule: Q01DX009 (ip), vehicle: Klucel (hydroxypropylcellulose) (HPC), higher = longer survival) is 108 % of control; the T/C (endpoint: median survival time, dose: 2.5 mg/kg/injection, schedule: Q01DX009 (ip), vehicle: Klucel (hydroxypropylcellulose) (HPC), higher = longer survival) is 92 % of control; the T/C (endpoint: median survival time, dose: 5.0 mg/kg/injection, schedule: Q01DX009 (ip), vehicle: Klucel (hydroxypropylcellulose) (HPC), higher = longer survival) is 102 % of control; the T/C (endpoint: median survival time, dose: 10.0 mg/kg/injection, schedule: Q01DX009 (ip), vehicle: Klucel (hydroxypropylcellulose) (HPC), higher = longer survival) was 99 % of control.
Turning to `O=CC1CO1` (configuration not stated), the T/C reads like this: (endpoint: mean tumor weight, dose: 29.0 mg/kg/injection, schedule: Q01DX011 (ip), vehicle: saline, higher = larger tumour) 89 % of control; (endpoint: mean tumor weight, dose: 44.0 mg/kg/injection, schedule: Q01DX011 (ip), vehicle: saline, higher = larger tumour) 44 % of control; (endpoint: mean tumor weight, dose: 66.0 mg/kg/injection, schedule: Q01DX011 (ip), vehicle: saline, higher = larger tumour) 75 % of control.
With `Nc1nc(=O)n(C2CC(O)C(CO)O2)cc1Br` (configuration not stated), the T/C reads like this: under setting [2], 65 % of control; under setting [3], 55 % of control; (endpoint: mean tumor weight, dose: 200.0 mg/kg/injection, schedule: Q01DX011 (ip), vehicle: carboxymethylcellulose (CMC), higher = larger tumour) 64 % of control; (endpoint: mean tumor weight, dose: 400.0 mg/kg/injection, schedule: Q01DX011 (ip), vehicle: carboxymethylcellulose (CMC), higher = larger tumour) 88 % of control; (endpoint: mean tumor weight, dose: 800.0 mg/kg/injection, schedule: Q01DX011 (ip), vehicle: carboxymethylcellulose (CMC), higher = larger tumour) 34 % of control.
Consider `S=C([S][Sn]([c]1ccccc1)([c]1ccccc1)[c]1ccccc1)N1CCCCC1`, for which the T/C reads like this: (endpoint: median survival time, dose: 3.12 mg/kg/injection, schedule: Q01DX009 (ip), vehicle: saline with Tween-80, higher = longer survival) 102 % of control; (endpoint: median survival time, dose: 12.5 mg/kg/injection, schedule: Q01DX009 (ip), vehicle: saline with Tween-80, higher = longer survival) 94 % of control; (endpoint: median survival time, dose: 25.0 mg/kg/injection, schedule: Q01DX009 (ip), vehicle: saline with Tween-80, higher = longer survival) 89 % of control.
In the case of `O=C(O)C1CCCCN1` (configuration not stated), the T/C was 110 % of control (endpoint: mean tumor weight, dose: 133.0 mg/kg/injection, schedule: Q01DX011 (ip), vehicle: other, higher = larger tumour); 123 % of control (endpoint: mean tumor weight, dose: 300.0 mg/kg/injection, schedule: Q01DX011 (ip), vehicle: other, higher = larger tumour); 116 % of control (endpoint: mean tumor weight, dose: 450.0 mg/kg/injection, schedule: Q01DX011 (ip), vehicle: other, higher = larger tumour).
With `CCC1=C(c2cc(Cl)c3ccccc3c2OCC(=O)O)OC(CC)(C(=O)c2cc(Cl)c3ccccc3c2OCC(=O)O)CC1` (configuration not stated), the T/C is, setting by setting: (endpoint: mean tumor weight, dose: 2.3 mg/kg/injection, schedule: Q01DX011 (ip), vehicle: carboxymethylcellulose (CMC), higher = larger tumour) 82 % of control; (endpoint: mean tumor weight, dose: 3.5 mg/kg/injection, schedule: Q01DX011 (ip), vehicle: carboxymethylcellulose (CMC), higher = larger tumour) 76 % of control.
For the molecule `Cc1nn(-c2ccccc2)c(N)c1C#N`, the T/C by setting is: (endpoint: median survival time, dose: 12.5 mg/kg/injection, schedule: Q01DX009 (ip), vehicle: other, higher = longer survival) 94 % of control; (endpoint: median survival time, dose: 25.0 mg/kg/injection, schedule: Q01DX009 (ip), vehicle: other, higher = longer survival) 98 % of control and 100 % of control; (endpoint: median survival time, dose: 50.0 mg/kg/injection, schedule: Q01DX009 (ip), vehicle: other, higher = longer survival) 97 % of control; (endpoint: median survival time, dose: 100.0 mg/kg/injection, schedule: Q01DX009 (ip), vehicle: other, higher = longer survival) 100 % of control; (endpoint: median survival time, dose: 200.0 mg/kg/injection, schedule: Q01DX009 (ip), vehicle: other, higher = longer survival) 100 % of control; (endpoint: median survival time, dose: 400.0 mg/kg/injection, schedule: Q01DX009 (ip), vehicle: other, higher = longer survival) 98 % of control.
As for `N/C(CCSc1ccccc1N=Cc1ccccc1O)=N/O`, the T/C (endpoint: median survival time, dose: 3.13 mg/kg/injection, schedule: Q01DX009 (ip), vehicle: olive oil, sesame oil, peanut oil, higher = longer survival) was 87 % of control.
In the case of `CCOc1ccc2nc(S(N)(=O)=O)sc2c1`, the T/C is, setting by setting: (endpoint: mean tumor weight, dose: 25.0 mg/kg/injection, schedule: Q01DX011 (ip), vehicle: carboxymethylcellulose (CMC), higher = larger tumour) 79 % of control; under setting [2], 122 % of control; under setting [3], 38 % of control.
Turning to `C[C@]12CC[C@@H]3c4ccccc4CC[C@H]3[C@@H]1CC[C@@H]2O`, the T/C by setting is: (endpoint: mean tumor weight, dose: 43.8 mg/kg/injection, schedule: Q01DX011 (sc), vehicle: steriod suspending solution, higher = larger tumour) 71 % of control; (endpoint: mean tumor weight, dose: 87.5 mg/kg/injection, schedule: Q01DX011 (sc), vehicle: steriod suspending solution, higher = larger tumour) 51 % of control; (endpoint: mean tumor weight, dose: 125.0 mg/kg/injection, schedule: Q01DX011 (sc), vehicle: steriod suspending solution, higher = larger tumour) 120 % of control; (endpoint: mean tumor weight, dose: 175.0 mg/kg/injection, schedule: Q01DX011 (sc), vehicle: steriod suspending solution, higher = larger tumour) 56 % of control; (endpoint: mean tumor weight, dose: 250.0 mg/kg/injection, schedule: Q01DX011 (sc), vehicle: steriod suspending solution, higher = larger tumour) 45 % of control and 69 % of control; (endpoint: mean tumor weight, dose: 350.0 mg/kg/injection, schedule: Q01DX011 (sc), vehicle: steriod suspending solution, higher = larger tumour) 32 % of control. The T/C was 14 % of control (endpoint: mean tumor weight, dose: 400.0 mg/kg/injection, schedule: Q01DX011 (sc), vehicle: steriod suspending solution, higher = larger tumour); 22 % of control (endpoint: mean tumor weight, dose: 600.0 mg/kg/injection, schedule: Q01DX011 (sc), vehicle: steriod suspending solution, higher = larger tumour); 35 % of control and 54 % of control (endpoint: mean tumor weight, dose: 1000.0 mg/kg/injection, schedule: Q01DX011 (sc), vehicle: steriod suspending solution, higher = larger tumour).
For the molecule `CSCS(=O)C[C@H](CO)NC(=O)/C=C/c1c(C)[nH]c(=O)[nH]c1=O` (some centres not stated), the T/C by setting is: (endpoint: median survival time, dose: 0.08 mg/kg/injection, schedule: Q01DX009 (ip), vehicle: water, higher = longer survival) 94 % of control; (endpoint: median survival time, dose: 0.15 mg/kg/injection, schedule: Q01DX009 (ip), vehicle: water, higher = longer survival) 109 % of control; (endpoint: median survival time, dose: 0.3 mg/kg/injection, schedule: Q01DX009 (ip), vehicle: water, higher = longer survival) 97 % of control.
As to `COC(=O)[C@H]1[C@H]2C[C@@H]3c4[nH]c5cc(OC)ccc5c4CCN3C[C@H]2C[C@@H](OC(=O)c2cc(OC)c(OC)c(OC)c2)[C@@H]1OC`, the T/C (endpoint: median survival time, dose: 0.25 mg/kg/injection, schedule: Q01DX009 (ip), vehicle: Klucel (hydroxypropylcellulose) (HPC), higher = longer survival) is 91 % of control; the T/C (endpoint: median survival time, dose: 0.5 mg/kg/injection, schedule: Q01DX009 (ip), vehicle: Klucel (hydroxypropylcellulose) (HPC), higher = longer survival) was 97 % of control and 243 % of control; the T/C (endpoint: median survival time, dose: 1.0 mg/kg/injection, schedule: Q01DX009 (ip), vehicle: Klucel (hydroxypropylcellulose) (HPC), higher = longer survival) is 103 % of control; the T/C (endpoint: median survival time, dose: 2.0 mg/kg/injection, schedule: Q01DX009 (ip), vehicle: Klucel (hydroxypropylcellulose) (HPC), higher = longer survival) is 96 % of control and 243 % of control.
Turning to `CC[C@]1(O)C[C@H](OC2CC(N(C)C)C(OC3CC(O)C(O)C(C)O3)C(C)O2)c2c(cc3c(c2O)C(=O)c2c(O)ccc(O)c2C3=O)[C@H]1C(=O)OC` (some centres not stated), the T/C was 118 % of control (endpoint: median survival time, dose: 0.25 mg/kg/injection, schedule: Q01DX009 (ip), vehicle: saline with Tween-80, higher = longer survival); 110 % of control (endpoint: median survival time, dose: 0.5 mg/kg/injection, schedule: Q01DX009 (ip), vehicle: saline with Tween-80, higher = longer survival); 123 % of control (endpoint: median survival time, dose: 1.0 mg/kg/injection, schedule: Q01DX009 (ip), vehicle: saline with Tween-80, higher = longer survival); 110 % of control (endpoint: median survival time, dose: 2.0 mg/kg/injection, schedule: Q01DX009 (ip), vehicle: saline with Tween-80, higher = longer survival).

(Values after PubChem BioAssay AID270 (DTP/NCI, 2004).)
